Columns and labels:
Plasmodium falciparum [1] = assay: NOVARTIS: Inhibition of Plasmodium falciparum 3D7 (drug-susceptible) proliferation in erythrocyte-based infection assay; type: functional, organism-based; settings: Plasmodium falciparum, 3D7
Plasmodium falciparum [2] = assay: NOVARTIS: Inhibition of Plasmodium falciparum W2 (drug-resistant) proliferation in erythrocyte-based infection assay; type: functional, organism-based; settings: Plasmodium falciparum, W2; read-out: EC50
[3] = NOVARTIS: Cytotoxicity against human hepatocellular carcinoma cell line (Huh7); type: toxicity, cell-based, Huh-7; settings: Huh7 cells (hepatocellular carcinoma cell line)

| Structure (SMILES) | EC50 (Plasmodium falciparum [1]) [nM] | EC50 (Plasmodium falciparum [2]) [nM] | CC50 [3] [nM] |
| --- | --- | --- | --- |
| O=C(Nc1nccs1)c1cc(-c2cccnc2)nc2ccc(Br)cc12 | 1080 | > 10400 | > 100000 |
| O=C(Nc1ccc(N2CCCCC2)cc1)c1cc2ccccc2o1 | > 1300 | 634 | > 3660 |
| O=C(Nc1cccc(C(F)(F)F)c1)c1ccc(-c2cccs2)cc1 | 10000 | 1940 | 7130 |
| COc1ccc2nc(NC(=O)c3ccc(C#N)cc3)sc2c1 | > 1060 | > 1250 | > 10000 |
| CCCc1cc(-c2onc(C)c2-c2ccc(C(=O)OCC)o2)c(O)cc1OC | 413 | 346 | 18500 |
| Cc1ccccc1Nc1sc(C(=O)c2ccc([N+](=O)[O-])cc2)c(N)c1C(=O)Nc1ccccc1 | > 1200 | > 1540 | > 10000 |
| Cn1c(=O)[nH]c2c(c1=O)n(C)c(=O)n2C | > 957 | > 799 | > 10000 |
| COc1ccc(CC(=O)Nc2ccc(S(=O)(=O)N3CCCCCC3)cc2)cc1 | > 12500 | 9690 | > 100000 |
| CN(C)CCCNCc1cc(-c2cccnc2)ccc1O | 241 | 514 | > 10000 |
| CCN(CC)[P+](N(C)C[Si](C)(C)C)(N(CC)CC)N(CC)CC | 154 | 523 | 8410 |
| C=CCc1cccc(C=NNc2nc3ccccc3[nH]2)c1O | 657 | 928 | > 100000 |
| O=C(NCc1ccccc1)c1cnc(NCCCn2ccnc2)nc1Nc1ccccc1 | 611 | 369 | > 10000 |
| CC(C)NC(=O)[C@@H]1C[C@@H](NCc2cccnc2)CN1Cc1ccc2ccccc2c1 | > 10900 | 3310 | > 100000 |
| Cc1ccccc1Cn1cc(NC(=O)c2cc(-c3cccs3)on2)cn1 | > 1250 | 1420 | > 10000 |
| Cc1cc(N2CCCCC2)nc(NCc2ccccc2)n1 | 5760 | 739 | 38400 |
| Cc1ccc(NC(=O)N(CCN(C)C)Cc2cc3cc4c(cc3[nH]c2=O)OCCO4)cc1 | 984 | 157 | > 100000 |
| O=C(Nc1cccc(OC(=O)c2ccc([N+](=O)[O-])cc2)c1)c1ccc([N+](=O)[O-])cc1 | > 12500 | 270 | > 100000 |
| CC(=O)C(=NNc1cc(C(F)(F)F)cc(C(F)(F)F)c1)C(C)=O | > 1250 | 26.7 | > 10000 |
| CC1=C(CC(=O)c2cccc([N+](=O)[O-])c2)C(=O)c2ccccc2C1=O | 2840 | 1720 | 4690 |
| Cc1cc(C)n(N=Cc2ccc(Cl)cc2)c(=O)c1C#N | 1070 | 183 | > 100000 |
| CCOC(=O)c1c(NC(=O)CSc2nc3c(c(=O)n(C)c(=O)n3C)n2C(C)C)sc2c1CCCC2 | 1560 | > 1250 | > 10000 |
| COC(=O)C1=C(C)NC2=C(C(=O)CC(c3ccc(OC)c(OC)c3)C2)C1c1ccc(Br)cc1 (centres undefined) | 450 | 181 | > 100000 |
| CCOC(=O)c1cc(-c2ccccc2)n(CCC(=O)Nc2ccccc2N2CCN(C)CC2)c1C | 794 | 336 | 17300 |
| CC(=NOC(=O)c1ccco1)c1cnccn1 | 1250 | > 1250 | > 10000 |
| COc1ccccc1-n1c(C(C)N2CCN(C(=O)c3cc([N+](=O)[O-])cc([N+](=O)[O-])c3)C(C)C2)nc2ccccc2c1=O (centres undefined) | > 603 | 79.6 | > 10000 |
| CC(C)(C)c1ccc2c(c1)CN(C1CCCCC1)CO2 | 99 | 36.9 | 20800 |
| CCOC(=O)C1=C(C)NC2=C(C(=O)CC(c3ccc(OC)c(OC)c3)C2)C1c1ccc(Cl)cc1Cl (centres undefined) | 25.4 | 11.6 | > 100000 |
| CCOc1ccc(NC(=O)NC(Cc2c[nH]c3ccccc23)C(=O)N2CCN(C(=O)NC(C)C)C(C)C2)cc1 (centres undefined) | 259 | 223 | > 10000 |
